Assay results reported in US10494380B2, “Nitrogen-containing tricyclic derivatives having HIV replication inhibitory activity” (priority 2015, dated 2019).
Read-outs that look alike come from different tables or passages of the source.

What was measured:
[1] = system: HIV (HTLV-IIIB strain); experiment: HIV replication inhibition assay (Test Example 1; MT-4 cells, MTT); format: cell-based; details: MT-4 cells, MTT; for EC50: read-out: EC50; for EC90: read-out: EC90
Experimental: HIV (HTLV-IIIB strain) persistent infected human T cell strain Molt-4 clone8 was cultured in RPMI-1640 medium supplemented with 10% fetal bovine serum and the supernatant was filtered, then the virus titer was measured and stored at −80° C. Each anti-human immunodeficiency virus active substance was diluted with the above culture medium to the designated concentration, which was dispensed into 96-well microtiter plate by 50 μL. Next, 100 μL of MT-4 cell suspension (2.5×10^4 cells) was dispensed into each well, then 50 μl of the above HIV-containing supernatant diluted with the above culture medium was added thereto (60 pfu (plaque forming unit)).
Cell mixture was cultured at 37° C. in CO2 incubator for four days, then 30 μL of MTT (3-(4,5-dimethylthiazole-2-yl)-2,5-diphenyltetrazolyum bromide) reagent (5 mg/mL in PBS) was added to all wells followed by incubation for 1 hour. In this step, MTT was reduced to insoluble formazan in living cells. To elute generated formazan 150 μL of the culture supernatant was removed from all wells, then 150 μL of cell lysis solution (10% Triton X-100 and 0.4% (v/v)-HCl containing isopropanol) was added thereto, followed by shaking with a plate mixer. The formazan was measured with micro plate reader at OD: 560 nm and 690 nm (reference wavelength) and the result was compared with the reference wells. EC50 and EC90 mean the compound concentration at which cytotoxicity caused by virus infection is inhibited 50% and 90%, respectively.

[2] = system: T125A mutant virus (HIV-1 NL-432 recombinant molecular clone, IN gene); experiment: HIV replication inhibition assay against integrase 124/125 mutant virus (Test Example 2); format: cell-based
Method in brief: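 EC50 is the compound concentration blocking half of virus-induced cell death, measured by MTT (OD 560 nm, 690 nm reference) after 4 days at 37 °C. Integrase 124/125 mutant NL-432 virus from transfected 293T cells (60 pfu) was added to 2.5×10^4 MT-4 cells with compound.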

[3] = system: HIV; format: cell-based; details: EC50 in the presence of human serum (25%) versus without human serum, MT-4 cells
Method in brief: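 HIV-infected MT-4 cells (3×10^4/well, infected 1 h at 37° C) are grown 4 days with compound that was first mixed 1 h with human serum or with medium only. Potency shift is the EC50 with serum divided by the EC50 without serum.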

[4] = molecular target: CYP2C9 (Homo sapiens (Human), UniProt P11712); experiment: CYP inhibition assay, tolbutamide methyl-hydroxylation (Test Example 4); format: in vitro ADME; details: pooled human hepatic microsome, 100 μmol/L tolbutamide, 15 minutes, 37° C.
Chain of CYP2C9 (P11712 whole entry): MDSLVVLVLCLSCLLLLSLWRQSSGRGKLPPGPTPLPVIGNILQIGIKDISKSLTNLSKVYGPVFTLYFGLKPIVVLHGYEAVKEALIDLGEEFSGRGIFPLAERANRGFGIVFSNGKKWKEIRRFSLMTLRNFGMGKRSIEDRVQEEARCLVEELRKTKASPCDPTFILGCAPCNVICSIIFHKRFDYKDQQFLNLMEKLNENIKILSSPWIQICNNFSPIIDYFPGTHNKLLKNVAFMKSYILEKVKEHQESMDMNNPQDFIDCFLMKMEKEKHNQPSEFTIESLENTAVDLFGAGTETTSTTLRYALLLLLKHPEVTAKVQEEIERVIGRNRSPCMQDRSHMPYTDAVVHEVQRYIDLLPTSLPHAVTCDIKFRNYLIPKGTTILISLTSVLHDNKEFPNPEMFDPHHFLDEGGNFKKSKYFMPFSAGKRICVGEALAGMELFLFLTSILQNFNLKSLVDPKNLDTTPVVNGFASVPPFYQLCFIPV
Experimental: Using commercially available pooled human hepatic microsome, and employing, as markers, 7-ethoxyresorufin O-deethylation (CYP1A2), tolbutamide methyl-hydroxylation (CYP2C9), mephenytoin 4′-hydroxylation (CYP2C19), dextromethorphan O-demethylation (CYP2D6), and terfenadine hydroxylation (CYP3A4) as typical substrate metabolism reactions of human main five CYP enzyme forms (CYP1A2, 2C9, 2C19, 2D6, 3A4) an inhibitory degree of each metabolite production amount by a test compound was assessed.
The reaction conditions were as follows: substrate, 0.5 μmol/L ethoxyresorufin (CYP1A2), 100 μmol/L tolbutamide (CYP2C9), 50 μmol/L S-mephenytoin (CYP2C19), 5 μmol/L dextromethorphan (CYP2D6), 1 μmol/L terfenedine (CYP3A4); reaction time, 15 minutes; reaction temperature, 37° C.; enzyme, pooled human hepatic microsome 0.2 mg protein/mL; test drug concentration, 1, 5, 10, 20 μmol/L (four points).
Each five kinds of substrates, human hepatic microsome, and a test drug in 50 mmol/L Hepes buffer as a reaction solution was added to a 96-well plate as the composition ad described above, NADPH, as a coenzyme was added to initiate metabolism reactions as markers and, after the incubation at 37° C. for 15 minutes, a methanol/acetonitrile=1/1 (V/V) solution was added to stop the reaction. After the centrifugation at 3000 rpm for 15 minutes, resorufin (CYP1A2 metabolite) in the supernatant was quantified by a fluorescent multilabel counter and tolbutamide hydroxide (CYP2C9 metabolite), mephenytoin 4′ hydroxide (CYP2C19 metabolite), dextrorphan (CYP2D6 metabolite), and terfenadine alcohol (CYP3A4 metabolite) were quantified by LC/MS/MS.

[5] = system: sheep red blood cells (RBC); experiment: Photohemolysis test (Test Example 13); format: cell-based; details: 0.0008 to 0.1 w/v %, 10 J/cm2 UV-irradiation (290-400 nm)
Text: Aliquots of sheep red blood cells (RBC) suspension prepared with medium to make a 2.5 v/v % concentration are dispensed into microplates. The compound of the present invention was desolved with a vehicle to make target concentrations and then these solutions were immediately added (in concentrations of 0.0008 to 0.1 w/v %) into the microplates. The mixtures on the microplates were exposed to 10 J/cm2 of UV-irradiation (UV-A and UV-B, 290-400 nm) with a GL20SE lamp (SANKYO DENKI) and a FL20S-BLB lamp (Panasonic). After the UV-irradiation, the mixtures were centrifuged. Aliquots of supernatant were transferred to a microplate. Absorbance of the supernatants was measured at 540 nm and 630 nm for judgement of the potential of phototoxicity. In the study, two endpoints were evaluated in biomembrane impairment (% of photohemolysis index; PI) and hyperoxidation of lipid membrane (methemoglobin formation; met-Hb) with the absorbance at 540 nm and 630 nm, respectively. PI and met-Hb were assessed based on the negative criteria (−), PI<10% and changes in absorbance at 630 nm<0.05, respectively. All else was judged as positive (+).

[6] = molecular target: CYP3A4 (Homo sapiens (Human), UniProt P08684); experiment: CYP3A4 (MDZ) MBI test (Test Example 6); details: pooled human liver microsomes, midazolam 1-hydroxylation, preincubation 0 or 30 min
Chain of CYP3A4 (P08684 whole entry): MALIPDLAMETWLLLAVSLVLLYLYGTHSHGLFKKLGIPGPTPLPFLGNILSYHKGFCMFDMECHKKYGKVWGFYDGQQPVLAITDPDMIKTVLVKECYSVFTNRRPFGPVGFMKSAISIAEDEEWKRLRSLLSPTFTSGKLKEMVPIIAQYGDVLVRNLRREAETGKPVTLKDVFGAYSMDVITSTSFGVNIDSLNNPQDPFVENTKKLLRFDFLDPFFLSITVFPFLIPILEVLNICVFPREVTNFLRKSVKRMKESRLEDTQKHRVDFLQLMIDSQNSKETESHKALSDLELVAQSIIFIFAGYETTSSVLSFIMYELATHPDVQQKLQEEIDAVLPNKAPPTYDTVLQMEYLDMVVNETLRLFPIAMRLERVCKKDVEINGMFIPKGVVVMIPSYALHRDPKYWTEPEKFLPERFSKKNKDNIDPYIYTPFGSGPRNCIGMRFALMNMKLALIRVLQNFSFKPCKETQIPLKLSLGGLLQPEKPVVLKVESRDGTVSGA

[7] = Human immunodeficiency virus 1, MT4, 96 h, HIV (HTLV-IIIB strain), four days
[8] = Human immunodeficiency virus 1, MT4, read-out: EC50 against T125A mutant virus, T125A mutant virus (HIV-1 NL-432 IN gene), MT-4 cells, MTT
[9] = HIV (HTLV-IIIB strain), four days
[10] = HIV HTLV-IIIB strain, cultured four days
[11] = T125A mutant virus (HIV-1 NL-432 IN gene), MT-4 cells, MTT, read-out: EC50 against T125A mutant virus

Compound | EC50 [1, 7] [nM] | EC90 [1, 7] [nM] | EC50 [2, 8] [nM] | Potency shift value [3] | IC50 [4] [nM] | Photohemolysis test, potential of phototoxicity (PI and met-Hb) [5] | CYP3A4 (MDZ) MBI, shifted IC [6] | EC90 [1, 9] [nM] | EC50 [1, 10] [nM] | EC50 [2, 11] [nM] | EC50 [1, 9] [nM]
Cc1c([C@H](OC(C)(C)C)C(=O)O)c(-c2ccc(Cl)cc2)c2cc(C)n3c2c1N(c1ncc(F)cn1)CC3 [Compound I-122] | 1.3 | 2.9 | 5.1 | 23 | > 20000 | (−) (negative criteria (−), PI<10% and changes in absorbance at 630 nm<0.05, respectively) | (−) (When a shifted IC was 1.0 or less, this was defined as negative) | – | – | – | –
Cc1c([C@H](OC(C)(C)C)C(=O)O)c(-c2ccc(Cl)cc2)c2cc(C)n3c2c1N(C)CC3 [Compound I-012] | 0.77 | 1.1 | 3.8 | 13 | – | (−) (negative criteria (−), PI<10% and changes in absorbance at 630 nm<0.05, respectively) | – | – | – | – | –
Cc1ccc(-c2c([C@H](OC(C)(C)C)C(=O)O)c(C)c3c4c2cc(C)n4CCN3S(C)(=O)=O)cc1 [Compound I-003] | 1.3 | 1.7 | 8.9 | 14 | – | (−) (negative criteria (−), PI<10% and changes in absorbance at 630 nm<0.05, respectively) | (−) (When a shifted IC was 1.0 or less, this was defined as negative) | – | – | – | –
Cc1c([C@H](OC(C)(C)C)C(=O)O)c(-c2ccc(Cl)cc2)c2cc(C)n3c2c1N(CCN(C)C)[C@H](C)C3 [Compound I-112] | 4.9 | 11 | 18 | 3.5 | > 20000 | (−) (negative criteria (−), PI<10% and changes in absorbance at 630 nm<0.05, respectively) | – | – | – | – | –
Cc1c([C@H](OC(C)(C)C)C(=O)O)c(-c2ccc(Cl)cc2)c2cc(C)n3c2c1N(c1ncc2ccccc2n1)CC3 [Compound I-157] | – | – | 12 | 12 | > 20000 | – | (−) (When a shifted IC was 1.0 or less, this was defined as negative) | – | – | – | –
CCOc1cnc(N2CCn3c(C)cc4c(-c5ccc(C)cc5)c([C@H](OC(C)(C)C)C(=O)O)c(C)c2c43)nc1 [Compound I-197] | 1.3 | 2.2 | – | 32 | > 20000 | (−) (negative criteria (−), PI<10% and changes in absorbance at 630 nm<0.05, respectively) | – | – | – | – | –
Cc1c([C@H](OC(C)(C)C)C(=O)O)c(-c2ccc(F)cc2)c2cc(C)n3c2c1N(C)CC3 [Compound I-048] | 1.2 | 1.5 | 11 | 9.2 | > 20000 | (−) (negative criteria (−), PI<10% and changes in absorbance at 630 nm<0.05, respectively) | – | – | – | – | –
Cc1ccc(-c2c([C@H](OC(C)(C)C)C(=O)O)c(Cl)c3c4c2cc(C)n4CCN3C)cc1 [Compound I-187] | – | – | – | 11 | – | – | (−) (When a shifted IC was 1.0 or less, this was defined as negative) | 2.2 | 1 | 4.8 | –
Cc1c([C@H](OC(C)(C)C)C(=O)O)c(-c2ccc(Cl)cc2)c2cc(C)n3c2c1N(S(C)(=O)=O)CC3 [Compound I-019] | – | – | – | 16 | – | – | (−) (When a shifted IC was 1.0 or less, this was defined as negative) | 1.6 | – | 6.6 | 1.2
COCCN1CCn2c(C)cc3c(-c4ccc(C)cc4)c([C@H](OC(C)(C)C)C(=O)O)c(C)c1c32 [Compound I-026] | 0.99 | 1.6 | 13 | 13 | > 20000 | – | – | – | – | – | –
Cc1nc(N2CCn3c(C)cc4c(-c5ccc(Cl)cc5)c([C@H](OC(C)(C)C)C(=O)O)c(C)c2c43)no1 [Compound I-176] | – | – | – | 12 | – | (−) (negative criteria (−), PI<10% and changes in absorbance at 630 nm<0.05, respectively) | (−) (When a shifted IC was 1.0 or less, this was defined as negative) | 5.6 | 2.3 | 4.6 | –
Cc1ccc(-c2c([C@H](OC(C)(C)C)C(=O)O)c(C)c3c4c2cc(C)n4CCN3C)cc1 [Compound I-001] | 0.69 | 1.1 | 4.7 | 13 | – | (−) (negative criteria (−), PI<10% and changes in absorbance at 630 nm<0.05, respectively) | – | – | – | – | –
